# In patent US20260234157A1, “COMPOUND AND METHOD FOR TARGETED DEGRADATION OF ANDROGEN RECEPTOR” (Gan & Lee Pharmaceuticals Co., Ltd., priority 2023, published 2026):
# Where a chain is given by its changes, count along the chain named. Where two headings read alike, the source gives them in different places.
# Assays:
# Assay type in all cases: cell-based
# LNCaP FGC cells = assay: Inhibition of proliferation of LNCaP cells (WST-8); settings: Homo sapiens, LNCaP, 96 h
# Procedure: The cells were cultured in a cell culture incubator with 5% CO2 at 37° C. overnight. […] On the sixth day, 96 well plates were taken out, and 20 μL of WST-8 (Beytime, C0040) reagent was added to each well.
# VCaP cells = assay: Inhibition of proliferation of VCaP cells (WST-8); settings: Homo sapiens, read-out: IC50 for inhibiting the proliferation of VCaP cells
# In short: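 VCaP FGC cells, 15000 per well in DMEM with 10% FBS, were cultured at 37° C, 5% CO2. On day nine, WST-8 reagent was added to read proliferation.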
# AR protein [1] = biological target: T1, AR protein (Homo sapiens, UniProt P10275); assay: Degradation of AR protein in VCaP cells (Western blot); settings: 8 hours; for inhibition at 0.01 µM: compound at 10 nM, read-out: Degradation rate of the AR protein in VCaP cells, 10 nM (%); for inhibition at 0.1 µM: compound at 100 nM, read-out: Degradation rate of the AR protein in VCaP cells, 100 nM (%)
# T1 construct: degradation activity of the compounds disclosed in the present disclosure on AR protein in VCaP cells; host or cells: VCaP
# T1 sequence (P10275 1-920): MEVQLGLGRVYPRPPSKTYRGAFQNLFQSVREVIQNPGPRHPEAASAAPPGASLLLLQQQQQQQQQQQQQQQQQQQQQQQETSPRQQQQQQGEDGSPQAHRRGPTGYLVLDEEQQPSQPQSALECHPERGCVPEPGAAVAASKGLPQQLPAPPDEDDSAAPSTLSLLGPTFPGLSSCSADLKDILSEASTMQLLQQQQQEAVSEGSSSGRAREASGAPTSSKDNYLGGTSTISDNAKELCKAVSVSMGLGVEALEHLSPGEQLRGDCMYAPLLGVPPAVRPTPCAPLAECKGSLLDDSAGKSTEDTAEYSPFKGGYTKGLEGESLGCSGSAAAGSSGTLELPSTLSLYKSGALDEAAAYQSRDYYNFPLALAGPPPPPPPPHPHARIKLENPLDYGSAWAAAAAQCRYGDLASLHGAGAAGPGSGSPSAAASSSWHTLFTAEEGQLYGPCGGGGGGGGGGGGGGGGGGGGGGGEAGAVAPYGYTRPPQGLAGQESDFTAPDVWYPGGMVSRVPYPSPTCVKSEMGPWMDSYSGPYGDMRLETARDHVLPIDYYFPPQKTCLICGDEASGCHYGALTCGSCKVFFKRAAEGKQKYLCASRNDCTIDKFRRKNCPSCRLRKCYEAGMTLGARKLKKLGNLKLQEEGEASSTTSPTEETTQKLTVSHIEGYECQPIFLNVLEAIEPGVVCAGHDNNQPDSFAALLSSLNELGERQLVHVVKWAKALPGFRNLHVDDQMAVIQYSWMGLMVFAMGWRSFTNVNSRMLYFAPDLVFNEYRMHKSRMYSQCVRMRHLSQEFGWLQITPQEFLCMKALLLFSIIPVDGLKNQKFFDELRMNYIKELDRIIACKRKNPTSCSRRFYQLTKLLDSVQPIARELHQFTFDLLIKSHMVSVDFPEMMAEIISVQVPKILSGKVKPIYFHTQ
# In short: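 VCaP cells treated with compound alongside solvent controls for 8 h, then lysed in RIPA and protein quantified by BCA. AR detected by SDS-PAGE/Western blot with infrared imaging. Degradation rate calculated from band grayscale, with GAPDH as internal reference.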
# AR protein [2] = biological target: T2, AR protein (Homo sapiens, UniProt P10275, T878A); assay: Degradation of AR protein in LNCaP cells (Western blot); settings: for inhibition at 0.01 µM: read-out: Degradation rates of the AR protein in LNCaP cells, 10 nM (%); for inhibition at 0.1 µM: read-out: Degradation rates of the AR protein in LNCaP cells, 100 nM (%)
# T2 construct: degradation activity of the compounds disclosed in the present disclosure on AR protein in LNCaP cells; host or cells: LNCaP FGC
# T2 sequence (P10275 1-920 T878A): T1 sequence (P10275 1-920) with T878A
# In short: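 AR assessed by SDS-PAGE/Western blot with infrared imaging; band greyscale normalised to GAPDH gave percent degradation.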
# [3] = LNCaP FGC cells, 96 hours, WST-8 absorbance at 450 nm, read-out: IC50 for inhibiting the proliferation of LNCaP cells
# [4] = VCaP cells, 168 hours, WST-8 absorbance at 450 nm
# [5] = LNCaP cells, compound 10 nM, 8 hours, Western blot grayscale, GAPDH internal reference
# [6] = LNCaP cells, compound 100 nM, 8 hours, Western blot grayscale, GAPDH internal reference
SMILES,IC50 (LNCaP FGC cells; [3]) [nM],IC50 (VCaP cells; [4]) [nM],inhibition at 0.01 µM (AR protein [1]) [%],inhibition at 0.1 µM (AR protein [1]) [%],inhibition at 0.01 µM (AR protein [2]; [5]) [%],inhibition at 0.1 µM (AR protein [2]; [6]) [%],"IC50 (LNCaP FGC cells; read-out: IC50 for inhibiting the proliferation of LNCaP cells, LNCaP FGC cells, 96 hours, WST-8 absorbance at 450 nm) [nM]","IC50 (VCaP cells; VCaP, 168 h) [nM]","inhibition at 0.01 µM (AR protein [2]; LNCaP, 8 h) [%]","inhibition at 0.1 µM (AR protein [2]; LNCaP, 8 h) [%]"
N#Cc1ccc(OC2CCC(NC(=O)c3ccc(N4CC5(CC(N6CCC7(CC6)COc6cc8c(cc6C7)C(=O)N(C6CCC(=O)NC6=O)C8=O)C5)C4)nn3)CC2)cc1Cl (stereo not drawn) [Compound 66],420,530,49,42,72,74,–,–,–,–
COc1cc(O[C@H]2C(C)(C)[C@H](NC(=O)c3ccc(N4CCC(C)(CN5CCC6(CC5)COc5c6ccc6c5CN(C5CCC(=O)NC5=O)C6=O)CC4)cc3)C2(C)C)ccc1C#N (stereo partly drawn) [Compound 221],46,1.5,16,64,24,76,–,–,–,–
COc1cc(O[C@H]2C(C)(C)[C@H](NC(=O)c3ccc(N4CCC(CN5CC6(CCc7cc8c(cc7O6)CN(C6CCC(=O)NC6=O)C8=O)C5)CC4)cc3)C2(C)C)ccc1C#N (stereo partly drawn) [Compound 297],61400,2,47,81,42,40,–,–,–,–
N#Cc1ccc(O[C@H]2CC[C@H](NC(=O)c3ccc(N4CCC5(CC4)COc4cc6c(cc45)C(=O)N(C4CCC(=O)NC4=O)C6=O)nn3)CC2)cc1Cl (stereo partly drawn) [Compound 52],4500,6800,16,26,43,22,–,–,–,–
COc1cc(O[C@H]2C(C)(C)[C@H](NC(=O)c3ccc(N4CCC(F)(CN5CC6(CCc7cc8c(cc7O6)C(=O)N(C6CCC(=O)NC6=O)C8=O)C5)CC4)cc3)C2(C)C)ccc1C#N (stereo partly drawn) [Compound 269],11800,270,7,63,35,61,–,–,–,–
COc1cc(O[C@H]2CC[C@H](NC(=O)c3ccc(N4CCC(CN5CC6(CCc7cc8c(cc7O6)C(=O)N(C6CCC(=O)NC6=O)C8=O)C5)(OC)CC4)nn3)CC2)ccc1C#N (stereo partly drawn) [Compound 231],3710,5120,11,63,31,28,–,–,–,–
N#Cc1ccc(O[C@H]2CC[C@H](NC(=O)c3ccc(N4CC5(CCC(N6CCC7(CC6)COc6cc8c(cc6C7)C(=O)N(C6CCC(=O)NC6=O)C8=O)CC5)C4)nn3)CC2)cc1Cl (stereo partly drawn) [Compound 65],500,100,50,71,36,75,–,–,–,–
N#Cc1ccc(O[C@H]2CC[C@H](NC(=O)c3ccc(N4CCC5(CCC(N6CCC7(CC6)COc6cc8c(cc6C7)C(=O)N(C6CCC(=O)NC6=O)C8=O)CC5)C4)nn3)CC2)cc1Cl (stereo partly drawn) [Compound 62],820,520,66,74,46,76,–,–,–,–
N#Cc1ccc(O[C@H]2CC[C@H](NC(=O)c3ccc(N4CC5(CC(N6CCC7(CCc8ccc9c(c8O7)CN(C7CCC(=O)NC7=O)C9=O)CC6)C5)C4)nn3)CC2)cc1Cl (stereo partly drawn) [Compound 152],28300,> 90000,51,72,45,24,–,–,–,–
N#Cc1ccc(O[C@H]2CC[C@H](NC(=O)c3ccc(N4CCC(N5CCC6(CCc7ccc8c(c7O6)CN(C6CCC(=O)NC6=O)C8=O)CC5)CC4)nn3)CC2)cc1Cl (stereo partly drawn) [Compound 171],–,–,46,62,–,–,13500,1,22,44
N#Cc1ccc(O[C@H]2CC[C@H](NC(=O)c3ccc(N4CCC5(CC(N6CCC7(CC6)COc6cc8c(cc67)C(=O)N(C6CCC(=O)NC6=O)C8=O)C5)C4)nn3)CC2)cc1Cl (stereo partly drawn) [Compound 54],1700,47,75,85,24,76,–,–,–,–
N#Cc1ccc(O[C@H]2CC[C@H](NC(=O)c3ccc(N4CCC(C#N)(CN5CCC6(CC5)COc5c6ccc6c5C(=O)N(C5CCC(=O)NC5=O)C6=O)CC4)nn3)CC2)cc1C(F)(F)F (stereo partly drawn) [Compound 228],2290,470,-9,18,30,56,–,–,–,–
COc1cc(O[C@H]2CC[C@H](NC(=O)c3ccc(N4CCC(CN5CCC6(CC5)COc5c6ccc6c5C(=O)N(C5CCC(=O)NC5=O)C6=O)(OC)CC4)nn3)CC2)ccc1C#N (stereo partly drawn) [Compound 272],100,63,38,75,45,52,–,–,–,–
N#Cc1ccc(O[C@H]2CC[C@H](NC(=O)c3ccc(N4CC[C@H](CN5CCC6(CC5)COc5cc7c(cc56)C(=O)N(C5CCC(=O)NC5=O)C7=O)C4)nn3)CC2)cc1Cl (stereo partly drawn) [Compound 58],1800,69,91,93,33,58,–,–,–,–
COc1cc(O[C@H]2C(C)(C)[C@H](NC(=O)c3ccc(N4CCC(F)(CN5CCC6(CC5)COc5cc7c(cc5C6)C(=O)N(C5CCC(=O)NC5=O)C7=O)CC4)cc3)C2(C)C)ccc1C#N (stereo partly drawn) [Compound 271],37900,100,-47,-5,-3,10,–,–,–,–
